Laboratory results from US20230357249A1, “ANDROGEN RECEPTOR PROTEIN DEGRADERS WITH A TRICYCLIC CEREBLON LIGAND” (THE REGENTS OF THE UNIVERSITY OF MICHIGAN, priority 2020, published 2023).

Target: T1, AR protein (Homo sapiens, UniProt P10275)
T1 construct: endogenous in cells; host or cells: VCaP
T1 sequence (P10275 1-920): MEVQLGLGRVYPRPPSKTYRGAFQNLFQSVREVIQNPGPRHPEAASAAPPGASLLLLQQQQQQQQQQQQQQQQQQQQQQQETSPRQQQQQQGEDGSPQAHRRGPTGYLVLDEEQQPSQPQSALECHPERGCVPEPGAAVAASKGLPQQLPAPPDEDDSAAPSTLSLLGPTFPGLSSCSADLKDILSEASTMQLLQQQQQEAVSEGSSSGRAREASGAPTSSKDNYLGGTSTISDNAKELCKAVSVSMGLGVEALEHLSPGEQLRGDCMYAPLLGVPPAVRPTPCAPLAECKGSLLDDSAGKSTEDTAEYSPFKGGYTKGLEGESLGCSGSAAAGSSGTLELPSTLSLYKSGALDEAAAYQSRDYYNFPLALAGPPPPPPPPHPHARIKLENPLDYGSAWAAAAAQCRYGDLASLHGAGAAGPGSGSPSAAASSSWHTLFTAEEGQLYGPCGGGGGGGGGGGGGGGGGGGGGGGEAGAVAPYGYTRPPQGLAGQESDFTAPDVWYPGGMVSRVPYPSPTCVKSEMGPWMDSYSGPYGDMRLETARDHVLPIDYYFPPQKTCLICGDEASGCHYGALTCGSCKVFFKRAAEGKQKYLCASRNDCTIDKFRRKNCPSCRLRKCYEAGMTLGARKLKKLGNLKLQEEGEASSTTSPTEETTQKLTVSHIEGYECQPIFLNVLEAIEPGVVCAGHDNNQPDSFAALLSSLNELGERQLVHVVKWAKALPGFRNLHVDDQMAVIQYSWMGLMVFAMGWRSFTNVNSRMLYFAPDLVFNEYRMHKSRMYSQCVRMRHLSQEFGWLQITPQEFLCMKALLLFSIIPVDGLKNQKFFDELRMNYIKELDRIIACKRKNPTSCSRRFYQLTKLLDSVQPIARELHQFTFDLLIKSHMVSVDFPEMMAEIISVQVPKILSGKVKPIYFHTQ
Test: AR protein degradation in VCaP cells, Western blotting
Format: cell-based
Parameters: key to AR protein degradation VCap 10 nM / AR protein degradation VCap 100 nM: A: >90% degradation (24 hr treatment); B: >50% degradation but <90% (24 hr treatment); C: >10% degradation but <50% (24 hr treatment); D: No significant degradation (24 hr treatment)
Conditions: 24 hr treatment; for percent AR protein degradation at 0.01 µM / AR protein degradation VCap 10 nM: 10 nM
Experimental: The appropriate cell line, e.g., prostate cancer LNCaP, Vcap, or 22RV1 cell line, was treated with Compounds of the Disclosure as indicated. The treated cells were lysed with RIPA buffer. The AR level in the cell lysates was examined by western blotting and a specific AR antibody (ab194196, Abcam, Cambridge, MA 02139) with concentration of 1:20,000. GAPDH was used as a loading control.
Bands were quantified with ImageJ software. The relative numbers of each band obtained from normalization with its corresponding GAPDH level were compared with Prism 8 software. The DC50 values were produced from Prism 8, and the DC90 values were calculated with an equation=Bottom + (Top-Bottom)/(1+10^((LogEC50-X)*HillSlope) based on DC50 and Hillslope values.
The amount of AR protein degradation in VCap and MDA-MB-453 cells caused by representative Compounds of the Disclosure at the concentrations indicated is presented in Table 4, FIG. 1, and FIG. 2.

| percent AR protein degradation at 0.1 µM (100 nM) | AR protein degradation VCap 10 nM | AR protein degradation VCap 100 nM (100 nM) | Structure (SMILES) | percent AR protein degradation at 0.01 µM |
| --- | --- | --- | --- | --- |
| > 90% |  |  | N#Cc1ccc(O[C@H]2CC[C@H](NC(=O)c3ccc(N4CCC(CN5Cc6cc7c(cc6C5)C(=O)N(C5CCC(=O)NC5=O)C7=O)CC4)cc3)CC2)cc1Cl (stereo partly drawn) [compound 8, N-((1r,4r)-4-(3-chloro-4-cyanophenoxy)cyclohexyl)-4-(4-((6-(2,6-dioxopiperidin-3-yl)-5,7-dioxo-3,5,6,7-tetrahydropyrrolo[3,4-f]isoindol-2(1H)-yl)methyl)piperidin-1-yl)benzamide] | > 90% |
| > 90% |  |  | CC1(C)C(Nc2ccc(C(=O)N3CCC(N4Cc5cc6c(cc5C4)C(=O)N(C4CCC(=O)NC4=O)C6=O)CC3)cc2)C(C)(C)C1Oc1ccc(C#N)c(Cl)c1 (stereo not drawn) [compound 176] | 10 to 50% |
| > 90% |  |  | C[C@H]1C[C@H](NC(=O)c2ccc(N3CCC(N4Cc5cc6c(cc5C4)C(=O)N(C4CCC(=O)NC4=O)C6=O)CC3)cc2)CC[C@H]1Oc1ccc(C#N)c(Cl)c1 (stereo partly drawn) [compound 13] | > 90% |
|  | D | D | C[C@@H]1CCN(C(=O)c2ccc(N3CCC(CN4Cc5cc6c(cc5C4)C(=O)N(C4CCC(=O)NC4=O)C6=O)CC3)cc2)C[C@H]1Oc1ccc(C#N)c(Cl)c1 (stereo partly drawn) [compound 121] |  |
| > 90% |  |  | N#Cc1ccc(O[C@H]2CC[C@H](NC(=O)c3ccc4c(c3)CCN(CC(=O)N3Cc5cc6c(cc5C3)C(=O)N(C3CCC(=O)NC3=O)C6=O)C4)CC2)cc1Cl (stereo partly drawn) [compound 27, N-((1r,4r)-4-(3-chloro-4-cyanophenoxy)cyclohexyl)-2-(2-(6-(2,6-dioxopiperidin-3-yl)-5,7-dioxo-3,5,6,7-tetrahydropyrrolo[3,4-f]isoindol-2(1H)-yl)-2-oxoethyl)-1,2,3,4-tetrahydroisoquinoline-6-carboxamide] | 50 to 90% |
| > 90% |  |  | C[C@H]1C[C@@H](NC(=O)c2ccc(N3CCC(CN4Cc5cc6c(cc5C4)C(=O)N(C4CCC(=O)NC4=O)C6=O)CC3)cc2)CC[C@@H]1Oc1ccc(C#N)c(Cl)c1 (stereo partly drawn) [compound 15] | > 90% |
| 10 to 50% | D |  | N#Cc1ccc(OC2CC3(CCC(NC(=O)c4ccc(N5CCC(CN6Cc7cc8c(cc7C6)C(=O)N(C6CCC(=O)NC6=O)C8=O)CC5)cc4)CC3)C2)cc1Cl (stereo not drawn) [compound 126] |  |
| > 90% |  |  | N#Cc1ccc(O[C@H]2CC[C@H](N3Cc4cc(C(=O)N5CCC(N6Cc7cc8c(cc7C6)C(=O)N(C6CCC(=O)NC6=O)C8=O)CC5)ccc4C3=O)CC2)cc1Cl (stereo partly drawn) [compound 173] | 10 to 50% |
| 50 to 90% |  |  | CC1(C)C(Nc2ccc(C(=O)N3CCC(CN4Cc5cc6c(cc5C4)C(=O)N(C4CCC(=O)NC4=O)C6=O)CC3)cc2)C(C)(C)C1Oc1ccc(C#N)c(Cl)c1 (stereo not drawn) [compound 175] | 10 to 50% |
| 50 to 90% | D |  | N#Cc1ccc(O[C@H]2CC[C@H](Nc3ccc(C(=O)N4CCC(N5Cc6cc7c(cc6C5)C(=O)N(C5CCC(=O)NC5=O)C7=O)CC4)cc3)CC2)cc1Cl (stereo partly drawn) [compound 10] |  |
| 50 to 90% | D |  | N#Cc1ccc(O[C@H]2CC[C@H](Nc3ccc(C(=O)N4CCC(CN5Cc6cc7c(cc6C5)C(=O)N(C5CCC(=O)NC5=O)C7=O)CC4)cc3)CC2)cc1Cl (stereo partly drawn) [compound 9] |  |
| 50 to 90% | D |  | N#Cc1ccc(OC2CC3(CC(NC(=O)c4ccc(N5CCC(CN6Cc7cc8c(cc7C6)C(=O)N(C6CCC(=O)NC6=O)C8=O)CC5)cc4)C3)C2)cc1Cl (stereo not drawn) [compound 124] |  |

| Structure (SMILES) | percent AR protein degradation at 0.1 µM (100 nM) | AR protein degradation VCap 10 nM | AR protein degradation VCap 100 nM (100 nM) | percent AR protein degradation at 0.01 µM |
| --- | --- | --- | --- | --- |
| CN(c1ccc(C#N)c(Cl)c1)[C@H]1CC[C@H](NC(=O)c2ccc([C@H]3CC[C@H](CN4Cc5cc6c(cc5C4)C(=O)N(C4CCC(=O)NC4=O)C6=O)CC3)cn2)CC1 (stereo partly drawn) [compound 313] | > 90% |  |  | > 90% |
| CN(c1ccc(C#N)c(Cl)c1)[C@H]1CC[C@H](NC(=O)c2ccc(C3CCN(CC(=O)N4Cc5cc6c(cc5C4)C(=O)N(C4CCC(=O)NC4=O)C6)CC3)cc2)CC1 (stereo partly drawn) [compound 328, N-((1r,4r)-4-((3-Chloro-4-Cyanophenyl)(Methyl)Amino)Cyclohexyl)-4-(1-(2-(6-(2,6-Dioxopiperidin-3-Yl)-5-Oxo-3,5,6,7-Tetrahydropyrrolo[3,4-F]Isoindol-2(1h)-Yl)-2-Oxoethyl)Piperidin-4-Yl)Benzamide] | > 90% |  |  | > 90% |
| CN(c1ccc(C#N)c(Cl)c1)C1CCC(NC(=O)c2ccc(N3CCC(N4Cc5cc6c(cc5C4)C(=O)N(C4CCC(=O)NC4=O)C6=O)CC3)cc2)CC1 (stereo not drawn) [compound 19, N-((1r,4r)-4-((3-chloro-4-cyanophenyl)(methyl)amino)cyclohexyl)-4-(4-(6-(2,6-dioxopiperidin-3-yl)-5,7-dioxo-3,5,6,7-tetrahydropyrrolo [3,4-f]isoindol-2(1H)-yl)piperidin-1-yl)benzamide] | > 90% |  |  | > 90% |
| CN(c1ccc(C#N)c(Cl)c1)[C@H]1CC[C@H](NC(=O)c2ccc(N3CCC(CN4Cc5cc6c(cc5C4)C(=O)N(C4CCC(=O)NC4=O)C6=O)CC3)cn2)CC1 (stereo partly drawn) [compound 324] | > 90% |  |  | > 90% |
| N#Cc1ccc(N2CC[C@H]3C[C@H](NC(=O)c4ccc(N5CCC(CN6Cc7cc8c(cc7C6)C(=O)N(C6CCC(=O)NC6=O)C8=O)CC5)cc4)CC[C@H]32)cc1Cl (stereo partly drawn) [compound 26] | 50 to 90% |  |  | 10 to 50% |
| CN(c1ccc(C#N)c(Cl)c1)[C@H]1CC[C@H](NC(=O)c2ccc(O[C@H]3CC[C@H](N4Cc5cc6c(cc5C4)C(=O)N(C4CCC(=O)NC4=O)C6=O)CC3)cc2)CC1 (stereo partly drawn) [compound 281, N-((1r,4r)-4-((3-Chloro-4-Cyanophenyl)(Methyl)Amino)Cyclohexyl)-4-(((1r,4r)-4-(6-(2,6-Dioxopiperidin-3-Yl)-5,7-Dioxo-3,5,6,7-Tetrahydropyrrolo[3,4-F]Isoindol-2(1h)-Yl)Cyclohexyl)Oxy)Benzamide] | > 90% |  |  | > 90% |
| N#Cc1ccc(N[C@H]2CC[C@H](NC(=O)c3ccc(N4CC(CN5Cc6cc7c(cc6C5)C(=O)N(C5CCC(=O)NC5=O)C7=O)C4)cc3)CC2)cc1Cl (stereo partly drawn) [compound 22] | > 90% |  |  | 50 to 90% |
| N#Cc1ccc(N[C@H]2CC[C@H](NC(=O)c3ccc(N4CCC(CN5Cc6cc7c(cc6C5)C(=O)N(C5CCC(=O)NC5=O)C7=O)CC4)cc3)CC2)cc1Cl (stereo partly drawn) [compound 18] | > 90% |  |  | 50 to 90% |
| CN(c1ccc(C#N)c(Cl)c1)[C@H]1CC[C@H](NC(=O)c2ccc(N3CC(CN4Cc5cc6c(cc5C4)C(=O)N(C4CCC(=O)NC4=O)C6=O)C3)cc2)CC1 (stereo partly drawn) [compound 23] | > 90% |  |  | > 90% |
